# Results reported in patent US20250170141A1, “MRGPRX2 MODULATORS AND RELATED METHODS OF TREATMENT” (Escient Pharmaceuticals, Inc., priority 2023, published 2025).
# Biological target: T1, human MRGPRX2 (Homo sapiens, UniProt Q96LB1)
# T1 construct: expressed in transfected cells; host or cells: CHO cells, stably transfected (G418 and Hygromycin B selection)
# T1 sequence (Q96LB1 1-330): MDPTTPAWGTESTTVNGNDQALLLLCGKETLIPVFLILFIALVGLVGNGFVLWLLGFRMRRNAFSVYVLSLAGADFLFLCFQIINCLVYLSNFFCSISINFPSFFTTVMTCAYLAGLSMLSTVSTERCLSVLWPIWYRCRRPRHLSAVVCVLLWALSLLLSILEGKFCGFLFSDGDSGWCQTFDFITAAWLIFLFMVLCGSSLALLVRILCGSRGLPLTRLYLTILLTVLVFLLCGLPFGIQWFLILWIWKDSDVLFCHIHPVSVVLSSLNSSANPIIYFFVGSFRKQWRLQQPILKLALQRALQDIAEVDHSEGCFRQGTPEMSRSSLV
# Test: MRGPRX2 activity: IP-One Gq HTRF assay in CHO cells, antagonism versus 0.3 uM Cortistatin-14
# Type: cell-based
# Details: versus 0.3 uM Cortistatin-14 agonist, CHO cells expressing human MRGPRX2, read-out: MRGPRX2 Antagonist Activity
# Description: CHO cells stably transfected to express human MRGPRX2 were maintained in an incubator at 37° C. with 5% CO2 and grown in F12 (HAM) media with 10% fetal bovine serum (FBS), 1% Glutamax, 1% penicillin/streptomycin, 800 μg/mL Geneticin (G418), and 300 μg/mL Hygromycin B.
# Cells were plated in a 384-well assay plate at 20,000 cells per well in 12 μL of Opti-MEM and kept in an incubator overnight. On the day of the assay, compounds solubilized at 10 mM in DMSO were added as a 10-point curve (30 uM final top concentration with 1:3 serial dilutions) using a Tecan D300E digital dispenser. Agonists were diluted in assay buffer (final concentrations of 5.7 mM Tris-HCl, 43 mM NaCl, 50 mM LiCl, pH=8) and 2 μL of the agonist Cortistatin-14 (CPC Scientific, catalog CORT-002) are added to each well. Final concentrations of agonists were 0.3 μM Cortistatin. Final concentrations of DMSO were kept consistent across the plate. Plates were incubated in the dark for 1 h at 37° C. and then for 1 h at room temperature. IP-1 standards and HTRF detection reagents were added according to the IP-One—Gq Kit purchased from Cisbio (part number 62IPAPEJ) and incubated in the dark for 1 h at room temperature. The plate was read on a Molecular Devices SpectraMax iD5 plate reader. The HTRF ratio was calculated from the raw data and graphed using GraphPad Prism to calculate an IC50 value for each compound.
# The activity ranges are denoted as follows: “+++++” denotes antagonist activity <100 nM; “++++” denotes antagonist activity between 100 and 500 nM; “+++” denotes activity between 501 and 1000 nM; “++” denotes activity between 1001 and 2500 nM; and “+” denotes activity >2500 nM.
row,SMILES,IC50 [nM]
1,"COc1ccc(F)c(CNC2=NS(=O)(=O)c3ccc(F)c(Oc4ccccc4Cl)c3N2)n1 [Compound 1-21, 5-(2-chlorophenoxy)-6-fluoro-3-(((3-fluoro-6-methoxypyridin-2-yl)methyl)amino)-4H-benzo[e][1,2,4]thiadiazine 1,1-dioxide]",501 to 1000
2,"CC(c1ccc(S(C)(=O)=O)cc1)c1c(F)ccc2c1NC(NCc1cccc(F)c1)=NS2(=O)=O (stereo not shown) [Compound 22-20, 6-fluoro-3-((3-fluorobenzyl)amino)-5-(1-(4-(methylsulfonyl)phenyl)ethyl)-4H-benzo[e][1,2,4]thiadiazine 1,1-dioxide]",100 to 500
3,"O=S1(=O)N=C(NCc2ncccc2F)Nc2c1ccc(F)c2Oc1ccc(Cl)cc1 [Compound 2-9, 5-(4-chlorophenoxy)-6-fluoro-3-(((3-fluoropyridin-2-yl)methyl)amino)-4H-benzo[e][1,2,4]thiadiazine 1,1-dioxide]",100 to 500
4,"O=S1(=O)N=C(NCc2cnccc2C(F)(F)F)Nc2c1ccc(F)c2Oc1ccccc1Cl [Compound 1-28, 5-(2-chlorophenoxy)-6-fluoro-3-(((4-(trifluoromethyl)pyridin-3-yl)methyl)amino)-4H-benzo[e][1,2,4]thiadiazine 1,1-dioxide]",501 to 1000
5,"O=S1(=O)N=C(NCc2ncccc2F)Nc2c1cc(F)c(F)c2Cc1ccccc1Cl [Compound 4-5, 5-(2-chlorobenzyl)-6,7-difluoro-3-(((3-fluoropyridin-2-yl)methyl)amino)-4H-benzo[e][1,2,4]thiadiazine 1,1-dioxide]",100 to 500
6,"CC(C)(F)CNC1=NS(=O)(=O)c2cccc(Oc3ccccc3Cl)c2N1 [Compound 1-244, 5-(2-chlorophenoxy)-3-((2-fluoro-2-methylpropyl)amino)-4H-benzo[e][1,2,4]thiadiazine 1,1-dioxide]",1000 to 2500
7,"O=S1(=O)N=C(NCc2ccc(F)cc2F)Nc2c1cc(F)c(F)c2Cc1ccccc1Cl [Compound 4-8, 5-(2-chlorobenzyl)-3-((2,4-difluorobenzyl)amino)-6,7-difluoro-4H-benzo[e][1,2,4]thiadiazine 1,1-dioxide]",100 to 500
8,"COc1cc(C)ccc1CNC1=NS(=O)(=O)c2cccc(Cc3ccccc3Cl)c2N1 [Compound 12-15, 5-(2-chlorobenzyl)-3-((2-methoxy-4-methylbenzyl)amino)-4H-benzo[e][1,2,4]thiadiazine 1,1-dioxide]",100 to 500
9,"CC(c1c(F)ccc2c1NC(NCc1cccc(F)c1)=NS2(=O)=O)c1c[nH]c2ccccc12 (stereo not shown) [Compound 22-18, 5-(1-(1H-indol-3-yl)ethyl)-6-fluoro-3-((3-fluorobenzyl)amino)-4H-benzo[e][1,2,4]thiadiazine 1,1-dioxide]",100 to 500
10,"COc1ccc(Cc2cccc3c2NC(NCc2ccccc2F)=NS3(=O)=O)cc1 [Compound 6-15, 3-((2-fluorobenzyl)amino)-5-(4-methoxybenzyl)-4H-benzo[e][1,2,4]thiadiazine 1,1-dioxide]",100 to 500
11,"O=S1(=O)N=C(NCc2ccccc2F)Nc2c1ccc(F)c2Cc1ccccc1Cl [Compound 4-4, 5-(2-chlorobenzyl)-6-fluoro-3-((2-fluorobenzyl)amino)-4H-benzo[e][1,2,4]thiadiazine 1,1-dioxide]",100 to 500
12,"Cc1cc(F)c(Oc2ccccc2Cl)c2c1S(=O)(=O)N=C(NCc1ncccc1F)N2 [Compound 1-45, 5-(2-chlorophenoxy)-6-fluoro-3-(((3-fluoropyridin-2-yl)methyl)amino)-8-methyl-4H-benzo[e][1,2,4]thiadiazine 1,1-dioxide]",100 to 500
13,"O=S1(=O)N=C(NCc2ncccc2F)Nc2c1ccc(F)c2Oc1cccc(F)c1 [Compound 2-8, 6-fluoro-5-(3-fluorophenoxy)-3-(((3-fluoropyridin-2-yl)methyl)amino)-4H-benzo[e][1,2,4]thiadiazine 1,1-dioxide]",100 to 500

# Other lines, results leading:
row,IC50 [nM],SMILES
1,< 100,"O=S1(=O)N=C(NCc2ncc(F)cc2F)Nc2c1ccc(F)c2Oc1ccccc1Cl [Compound 1-14, 5-(2-chlorophenoxy)-3-(((3,5-difluoropyridin-2-yl)methyl)amino)-6-fluoro-4H-benzo[e][1,2,4]thiadiazine 1,1-dioxide]"
2,< 100,"CC(c1ccccc1F)c1c(F)ccc2c1NC(NCc1cc(F)ccc1F)=NS2(=O)=O (stereo not shown) [Compound 9-3, 3-((2,5-difluorobenzyl)amino)-6-fluoro-5-(1-(2-fluorophenyl)ethyl)-4H-benzo[e][1,2,4]thiadiazine 1,1-dioxide]"
3,< 100,"COc1cccc(C(C)c2c(F)ccc3c2NC(NCc2cccc(F)c2)=NS3(=O)=O)n1 (stereo not shown) [Compound 22-6, 6-fluoro-3-((3-fluorobenzyl)amino)-5-(1-(6-methoxypyridin-2-yl)ethyl)-4H-benzo[e][1,2,4]thiadiazine 1,1-dioxide]"
4,< 100,"Cc1cccc(CNC2=NS(=O)(=O)c3cccc(Cc4ccccc4Cl)c3N2)c1 [Compound 12-20, 5-(2-chlorobenzyl)-3-((3-methylbenzyl)amino)-4H-benzo[e][1,2,4]thiadiazine 1,1-dioxide]"
5,< 100,"O=S1(=O)N=C(NCc2ccncc2F)Nc2c(Cc3ccccc3Cl)cccc21 [Compound 12-23, 5-(2-chlorobenzyl)-3-(((3-fluoropyridin-4-yl)methyl)amino)-4H-benzo[e][1,2,4]thiadiazine 1,1-dioxide]"
6,< 100,"C=C(c1ccccc1F)c1cccc2c1NC(NCc1ncccc1Cl)=NS2(=O)=O [Compound 13-1, 3-(((3-chloropyridin-2-yl)methyl)amino)-5-(1-(2-fluorophenyl)vinyl)-4H-benzo[e][1,2,4]thiadiazine 1,1-dioxide]"
7,< 100,"CC(c1c(F)ccc2c1NC(NCc1cccc(F)c1)=NS2(=O)=O)C1CCOCC1 (stereo not shown) [Compound 22-3, 6-fluoro-3-((3-fluorobenzyl)amino)-5-(1-(tetrahydro-2H-pyran-4-yl)ethyl)-4H-benzo[e][1,2,4]thiadiazine 1,1-dioxide]"
8,< 100,"O=S1(=O)N=C(NCc2ncccc2Cl)Nc2c(/C=C/c3ccccc3F)cccc21 [Compound 14-1, (E)-3-(((3-chloropyridin-2-yl)methyl)amino)-5-(2-fluorostyryl)-4H-benzo[e][1,2,4]thiadiazine 1,1-dioxide]"
9,< 100,"C[C@H](c1ccccc1F)c1c(F)ccc2c1NC(NCc1ccc3c(cnn3C)c1)=NS2(=O)=O [Compound 24-3, (R)-6-fluoro-5-(1-(2-fluorophenyl)ethyl)-3-(((1-methyl-1H-indazol-5-yl)methyl)amino)-4H-benzo[e][1,2,4]thiadiazine 1,1-dioxide]"
10,< 100,"Cc1cc(F)ccc1CNC1=NS(=O)(=O)c2cccc(Cc3ccccc3Cl)c2N1 [Compound 12-7, 5-(2-chlorobenzyl)-3-((4-fluoro-2-methylbenzyl)amino)-4H-benzo[e][1,2,4]thiadiazine 1,1-dioxide]"
11,< 100,"O=S1(=O)N=C(NCc2ncccc2F)Nc2c1ccc(F)c2Oc1cccc(F)c1Cl [Compound 1-19, 5-(2-chloro-3-fluorophenoxy)-6-fluoro-3-(((3-fluoropyridin-2-yl)methyl)amino)-4H-benzo[e][1,2,4]thiadiazine 1,1-dioxide]"
12,< 100,"CCC(c1ccccc1F)c1cccc2c1NC(NCc1ncccc1F)=NS2(=O)=O (stereo not shown) [Compound 21-1, 5-(1-(2-fluorophenyl)propyl)-3-(((3-fluoropyridin-2-yl)methyl)amino)-4H-benzo[e][1,2,4]thiadiazine 1,1-dioxide]"
